Test results reported in patent publication US8530453B2, “Compounds and methods for the treatment of pain and other diseases” (Aquilus Pharmaceuticals, Inc., priority 2009, dated 2013).
One block for each molecule: values may come before it.

Tests used:
[1] = tested on: spinal nerve ligation (SNL) mouse model, mechanical allodynia; assay: Intrathecal (i.t.) administration in the SNL mouse model of pain, von Frey tactile allodynia test; format: in vivo; settings: for 50% paw withdrawal threshold, mean, Day (-2) Pre-operative Baseline: group baseline prior to SNL injury, before treatment, FVB male mice
Excerpt: (§1) To measure the neuropathic pain inhibiting affects of the MMP inhibitors of the present invention, the spinal nerve ligation (SNL) mouse model was run on a select number of compounds. This model which began with the work of Bennet and coworkers (Bennet, G. J. et al. Pain, 33, (1988), 87-107) and was optimized by Kim and Chung (Kim, S. H.; Chung, J. M. Pain, 50, (1992), 355-363) entails first, under magnification, the removal of one-third of the transverse process and then identifying and then dissecting free the L5 spinal nerve from the adjacent L4 spinal nerve in the mouse. The L5 spinal nerve is then tightly ligated using 6.0 silk suture. The nerve injury leads to hyperalgesia which manifests itself by enhanced responses to mechanical, heat and/or cooling stimuli. In this case, mechanical hyperalgesia is tested via Von Frey monofilaments in which filaments of varying thicknesses and bending force are individually applied to the plantar surface of the foot of the mouse. The threshold force necessary for paw withdrawal decreases dramatically after the nerve surgery. Potent pain inhibitors will reverse this affect resulting in greater force needing to be applied to cause the rodent paw to withdrawal.
Following preoperative baseline (Day −2) paw threshold measurement, FVB male mice were subjected to SNL injury (Day −1). […] Over the course of the study, paw withdrawal threshold of these animals was measured in response to mechanical stimulation using the von Frey Monofilament Test. […]
(§2) Tactile Allodynia Test. Mechanical allodynia was measured using the calibrated von Frey filaments (Semmes-Weinstein monofilaments; Stoelting, Wood Dale, Ill., U.S.A.). […] The Fifty percent paw withdrawal threshold response was determined by sequentially increasing or decreasing the stimulus strength according to the “up-down method” of Dixon (Annual Review Pharmacology Toxicology, 20, (1980), 441-462). […]

[2] = In-vitro mouse microsomal stability; format: in vitro ADME; settings: compound 1 microMolar, at T = 60 minutes; for % Mean Remaining Parent with NADPH (%): mouse microsomes 0.3 mg/mL, 37 C; for % Mean Remaining Parent without NADPH (%): mouse microsomes, control omitting NADPH
Procedure: Human and mouse microsomal stability was determined for select compounds following the method of Houston (Houston, J B; Biochem. Pharmacol. 47, (1994), 1469).
1 μM concentration of compound and seperate human and mouse microsomes (0.3 mg/mL, BD bioscience) were used in the in-vitro assay. To ensure proper energy supply for microsomal degradation of compound, an energy regenerating system comprised of 100 mM potassium phosphate, 2 mM NADPH, 3 mM MgCl2, pH=7.4. and the microsomal protein is added to each sample and the resulting suspension is then incubated in duplicate for 60 min at 37° C. in a rotary shaker. A control is run for each test agent in duplicate omitting NADPH to detect NADPH-free degradation. At T=0 and T=60 min., an aliquot is removed from each experimental and control reaction and then mixed with an equal volume of ice-cold Stop Solution (consisting of 0.3% acetic acid in acetonitrile containing haloperidol and diclofenac as internal standards). Stopped reactions are then incubated for at least ten minutes at −20° C., and an additional volume of water is then be added. The samples are then centrifuged to remove precipitated protein, and the supernatants are then analyzed by LC-MS/MS to determine the percentage of compound remaining. The LC-MS/MS system used was an Agilent 6410 mass spectrometer coupled with an Agilent 1200 HPLC and a CTC PAL chilled autosampler, all controlled by MassHunter software (Agilent), or an ABI2000 mass spectrometer coupled with an Agilent 1100 HPLC and a CTC PAL chilled autosampler, all controlled by Analyst software (ABI). After separation on a C18 reverse phase HPLC column (Agilent, Waters, or equivalent) using an acetonitrile-water gradient system, peaks were analyzed by mass spectrometry (MS) using ESI ionization in MRM mode.

[3] = biological target: Catalytic domain of MMP-9 (human recombinant) (Homo sapiens, UniProt P14780); assay: biochemical; settings: read-out: Average Percent Inhibition (MMP-9)
[4] = tested on: spinal nerve ligation (SNL) mouse model, mechanical allodynia; assay: Intraperitoneal (i.p.) administration in the SNL mouse model of pain, von Frey tactile allodynia test; format: in vivo
Excerpt: as §1, with “The threshold force necessary for paw withdrawal decreases dramatically after the nerve surgery. Potent pain inhibitors will reverse this affect resulting in greater force needing to be applied to cause the rodent paw to withdrawal.” left out
as §2

[5] = tested on: mechanical nociception; settings: in vivo; cited from earlier work
[6] = tested on: humans; settings: clinical; cited from earlier work
[7] = tested on: chronic constriction injury (CCI)-mouse model; settings: epineural daily injections, after the third day; cited from earlier work

Sequence of Catalytic domain of MMP-9 (human recombinant) (P14780 107-444 limits assumed): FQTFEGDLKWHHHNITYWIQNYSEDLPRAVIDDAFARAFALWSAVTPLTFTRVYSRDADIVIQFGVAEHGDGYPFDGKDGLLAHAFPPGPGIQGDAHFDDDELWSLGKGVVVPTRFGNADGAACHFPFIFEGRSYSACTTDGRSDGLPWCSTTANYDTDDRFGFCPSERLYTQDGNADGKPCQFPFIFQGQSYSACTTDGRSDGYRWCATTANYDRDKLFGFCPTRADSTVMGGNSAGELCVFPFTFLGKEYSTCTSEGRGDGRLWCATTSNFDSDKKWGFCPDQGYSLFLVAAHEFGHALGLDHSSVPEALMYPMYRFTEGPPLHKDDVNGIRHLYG

% Mean Remaining Parent with NADPH (%) [2]: 83% | % Mean Remaining Parent without NADPH (%) [2]: 88%
SMILES: Cc1ccc(C#Cc2ccc(S(=O)(=O)N[C@H](Cc3c[nH]c4ccccc34)C(=O)O)s2)cc1 [Compound 5, (R)-3-(1H-Indol-3-yl)-2-(5-p-tolylethynyl-thiophene-2-sulfonylamino)-propionic acid]
50% paw withdrawal threshold, mean, Day (-2) Pre-operative Baseline [1]: 1.265 g

SMILES: [2H]C([2H])([2H])c1ccc(C#Cc2ccc(S(=O)(=O)N[C@H](Cc3c[nH]c4ccccc34)C(=O)O)s2)cc1 [Compound 10, (R)-3-(1H-Indol-3-yl)-2-[5-(4-trideuteromethyl-phenylethynyl)-thiophene-2-sulfonylamino]-propionic acid-(D3, 98%)]
inhibition at 1 µM [3]: 78% | 50% paw withdrawal threshold, mean, Day (-2) Pre-operative Baseline [1]: 1.268 g | Reversal of allodynia (in words) ([1]; i.t., as compared to vehicle and compound #5): almost complete reversal of allodynia | Reversal of mechanical allodynia (in words) ([4]; i.p. approx. 3.3 mg/Kg daily): complete reversal of mechanical alodynia by day 5 | Duration of effect after last injection (in words) ([4]; i.p., 48 hours (day 6) from the last injection (day 4)): rather prolonged effect | % Mean Remaining Parent with NADPH (%) [2]: 85% | % Mean Remaining Parent without NADPH (%) [2]: 91%

SMILES: CNC(=O)[C@H](Cc1c[nH]c2ccccc12)NC(=O)[C@@H](CC(=O)NO)CC(C)C [GM6001]
Effect on mechanical nociception (in words) [5]: found to attenuate mechanical nociception

SMILES: CNC(=O)[C@@H](NC(=O)[C@H](CC(C)C)[C@H](O)C(=O)NO)C(C)(C)C [Marimastat]
Toxicities in humans (in words) [6]: time-dependent and dose-dependent musculoskeletal toxicities (arthralgia, myalgia, tendinitis)

SMILES: CC(C)C[C@H](CC(=O)NO)C(=O)N[C@@H](Cc1ccc2ccccc2c1)C(=O)N[C@@H](C)C(N)=O [TAPI-0]
Effect on mechanical allodynia and thermal hyperalgesia (in words) [7]: able to block both mechanical allodynia and thermal hyperalgesia
